Source: patent US20040171688A1, “Carboxylic acids and derivatives thereof and pharmaceutical compositions containing them” (priority 1997, published 2004)

Biological target: T1, HNF-4α (Rattus norvegicus, UniProt P22449)
T1 sequence (P22449 1-464 isoform P22449-2): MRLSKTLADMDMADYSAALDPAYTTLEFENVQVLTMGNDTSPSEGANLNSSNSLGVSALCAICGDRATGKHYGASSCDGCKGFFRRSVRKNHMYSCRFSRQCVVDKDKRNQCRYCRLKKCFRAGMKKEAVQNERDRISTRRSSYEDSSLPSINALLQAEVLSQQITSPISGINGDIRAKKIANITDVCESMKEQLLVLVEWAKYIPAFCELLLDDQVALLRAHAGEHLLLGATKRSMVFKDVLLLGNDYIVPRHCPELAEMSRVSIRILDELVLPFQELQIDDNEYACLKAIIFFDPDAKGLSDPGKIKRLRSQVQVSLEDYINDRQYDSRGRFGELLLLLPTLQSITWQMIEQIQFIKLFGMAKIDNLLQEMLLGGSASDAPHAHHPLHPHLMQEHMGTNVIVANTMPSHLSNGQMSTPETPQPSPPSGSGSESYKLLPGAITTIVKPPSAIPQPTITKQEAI
Experiment: In vitro transcription assay induced by His-HNF-4α with HeLa nuclear extract
Assay type: biochemical
Set-up: The full length HNF-4α1 cDNA cloned into 6His-pET11d vector was expressed in E.coli BL21 (DE3)plysS; 6His; made in house; host or cells: E. coli BL21 (DE3)plysS
Conditions: for HNF-4α transcriptional activity, agonist/antagonist character (summary): summary statement of Example 4
Description: a. Representative experiments showing in vitro transcription of the test template in the presence of increasing concentrations of His-HNF-4I and in the absence (lanes 1-3, 7-9) or presence of 10 μM of added palmitoyl(16:0)-CoA (lanes 4-6) or stearoyl(18:0)-CoA (lanes 10,11) as indicated. Correctly initiated transcripts of the test and control templates are denoted by (→) and ? , respectively.
b. HNF-4I-induced in vitro transcription in the absence (empty bars) or presence of 10 μM each of added palmitoyl(16:0)-CoA (filled bars) or stearoyl(18:0)-CoA (hatched bars). Fold transcription indicates the ratio of specific transcript produced by the test template over transcript from the control template normalized to the ratio observed without HNF-4a. The figure summarizes 5 independent experiments for each acyl-CoA. *-Significant as compared with the respective value in the absence of added ligand.
Reaction mixture contained 20 mM Hepes-KOH (pH 7.9), 5 mM MgCl2, 60 mM KCl, 8% glycerol, 2 mM DTT, 1 mM 3′-O-methyl-GTP, 10 units of T1RNase, 20 units of RNasin, 0.5 μg sonicated salmon sperm DNA and His-HNF-4α and test ligand as indicated. The mixture was preincubated for 30 min at 22° C. followed by adding 10 ng of pAdML200 control template consisting of the adenovirus major-late promoter (−400/+10) linked to a 200 bp G-less cassette and 200 ng of the test template consisting of three C3P copies of the apo CIII promoter sequence (−87/−66) upstream to a synthetic ovalbumin TATA box promoter in front of a 377 bp-G-less cassette. The mixture was further preincubated for 10 min at 22° C. followed by adding 40 μg of HeLa nuclear extract with additional preincubation for 30 min at 30° C. 0.5-mM ATP, 0.5 mM CTP, 25 μM UTP, and 10 μCi of [α-^32P]UTP (s.a. […], Amersham) were then added and the complete reaction mixture was incubated for 45 min at 30° C. in a final volume of 25 μl. The reaction was terminated by adding 175 μl of stop mix (0.1 M sodium acetate (pH 5.2), 10 mM EDTA, 0.1% SDS, 200 μg/ml tRNA) followed by phenol extraction and ethanol precipitation. RNA was resuspended in sample buffer containing 80% formamide and 10 mM Tris-HCl (pH 7.4) and separated on 5% polyacrylamide gel containing 7 M urea in TBE. Correctly initiated transcripts were quantitated by PhosphorImager analysis. The test DNA template was constructed by inserting into pC2AT19 plasmid a PCR-amplified oligonucleotide prepared by using the (C3P)3-TK-CAT plasmid as template and consisting of three copies of the C3P element of the Apo CIII promoter sequence (−87/−66) having an ECoRI and SSTI sites at the 5′ and 3′ ends, respectively. The resultant plasmid was cleaved with sphI and sacI and ligated to a synthetic oligonucleotide (5′-CGAGGTCCAC-[…]-3′) containing sequences of the HSV thymidine kinase promoter (−41/−29) and of the chicken ovalbumin promoter (−33/−21).
The effect of agonistic and antagonistic HNF-4α-ligands was further evaluated by analyzing the in vitro transcription rate, catalyzed by added HeLa nuclear extract and induced by recombinant HNF-4α, of a test template consisting of a 377 bp G-less cassette promoted by sequences of the HSV thymidine kinase and chicken ovalbumin promoters and enhanced by three C3P copies of the apo Clil gene promoter. Transcriptional activation by HNF-4α was evaluated in the presence and in the absence of added representative long chain fatty acyl-CoAs. […]

CCCCCCCCCCCCCCCCCC(=O)SCCNC(=O)CCNC(=O)[C@H](O)C(C)(C)COP(=O)(O)OP(=O)(O)OC[C@H]1O[C@@H](n2cnc3c(N)ncnc32)[C@H](O)[C@@H]1OP(=O)(O)O [Stearoyl(18:0)-CoA]
effect on HNF-4α induced in vitro transcription (10 μM added acyl-CoA (FIG. 3)): inhibited | HNF-4α transcriptional activity, agonist/antagonist character (summary): true antagonist

CCCCCCCCCCCCCC(=O)SCCNC(=O)CCNC(=O)[C@H](O)C(C)(C)COP(=O)(O)OP(=O)(O)OC[C@H]1O[C@@H](n2cnc3c(N)ncnc32)[C@H](O)[C@@H]1OP(=O)(O)O [myristoyl(14:0)-CoA, reference compound]
HNF-4α transcriptional activity, agonist/antagonist character (summary): activators
